Patent publication US11129867B2, “Method of treating cancer cells” (priority 2017, dated 2021)
Where a SMILES comes first, the peptide text is derived from it. The star is where a group is joined. X1 = CN(C)c1ccc2c(-c3ccc(C(=O)*)cc3C(=O)[O-])c3ccc(=[N+](C)C)cc-3oc2c1

Columns and labels:
[1] = test system: Ca922 cells; experiment: Time-lapse live cell imaging, Ca922; type: cell-based
Description: Ca922 cells were grown on 35 mm culture dishes overnight then treated with 1% DMSO, 12.5 μM TMR, GBP, TMR-GBP respectively and monitored by time-lapse live cell microscope. Cells were exposed to indicate wavelength once every 4 hours for 100 ms and continuously for 20 hours. At least 300 cells in five different fields were counted for each experiment using microcopy that captured images under 10× magnification. Mortality rate was evaluated by counting the percentage of dead cells in the whole population. Standard deviations of three independent experiments were indicated as bars.
(§1) Time-Lapse Live Cell Imaging
(§2) In order to monitor cell morphology and the stability of TMR-GBP, cells were incubated in 35 mm dish or 4 well dish at 37° C. overnight. Replaced the culture medium with CO2-independent medium with supplement of 10% fetal bovine serum (FBS) and 1% penicillin-streptomycin, cells were treated with reagent (TMR, GBP, TMR-GBP) for the time according to the experiment and subjected to time-lapse live cell imaging. Cells were maintained on the microscope stage incubator at 37° C. Multiple-positional time-lapse imaging was performed using an automated Leica DMI6000 inverted microscope equipped with an HCX PL FL 20λ/NA0.4 objective and Andor Luca R EMCCD camera. Images of cells were taken at different interval time and analyzed by MetaMorph software.

[2] = test system: A549; experiment: Time-lapse live cell imaging, A549; type: cell-based; conditions: A549, unbound TMR-GBP removed, imaged at 15 minutes interval for 16 hours, FIG. 4
Description: as §1, §2

[3] = test system: Bax; experiment: Western blotting of pro-apoptotic protein Bax; type: cell-based, human; conditions: Ca922, 25 μM, indicated time points, FIG. 6C
Description: Protein expression of pro-apoptotic protein Bax were examined in Ca922 cells treated with 25 μM TMR-GBP for indicated time points. The relative protein level was presented below the blot as ratios which was normalized to Bax value of control cells (0 hour).
Western Blotting Analysis
Cells were harvested by trypsion or scratch and lysed in RIPA buffer (50 mM Tris-HCl, pH 7.4, 150 mM NaCl, 0.1% SDS, 0.5% Sodium deoxycholate, 1% NP-40) supplemented with 1× protease inhibitor cocktail. Sample was incubated on ice for 30 minutes and scraped every 10 minutes. Centrifuge at 13,000 rpm at 4° C. for 15 minutes, then collect supernatant for analysis. Protein concentration was determined by Bradford assay. First, 5× Bradford assay dye reagent was diluted into […], and mixture with RIPA (as standard) or samples. Concentration was obtained by spectrophotometer measurement. Equal volume of 2× laemmli buffer containing β-ME was added into protein lysate for goal concentration. Protein samples were boiled at 100° C. for 15 minutes and resolved by 10% SDS-PAGE gel or 4%-15% gradient gel. Then, transfer to PVDF membrane by 100V or 110V voltage for 1 hour. […] Washing the membrane three times with 1×PBST for every 5 minutes, protein band was detected by modified ECL (ddH2O, […] Tris pH8.0, 200 μM p-coumaric acid, 1.25 mM luminal, 0.001% H2O2) with ImageQuant LAS 4000 digital imaging system.

[4] = test system: intracellular ROS in Ca922 cells; experiment: DCFDA cellular ROS detection assay; type: cell-based, human
Description: Ca922 cells were seeded in dark, clear bottom 96-well microplate with 25,000 cells per well. Cells were then labeled with 25 μM DCFDA for 45 minutes and 25 μM TMR-GBP for 6 hours. 1% H2O2 (1 hour) and 55 mM TBHP (4 hours) treatments were positive control, mimic ROS activity to oxidize DCFDA to fluorescent DCF. Cells were then analyzed on a fluorescent plate reader. Standard deviations of three independent experiments were indicated as bars.
DCFDA Cellular ROS Detection Assay
Seeded cells at 2.5×10^4 cells/well on a dark, clear bottom 96-well microplate and incubated in complete media with 10% FBS without phenol red. Prepared 1× Buffer by diluting 10× buffer in ddH2O and a working DCFDA solution (25 μM) by adding the appropriate volume of 20 mM DCFDA to 1× Buffer. Washed cells once in 1× Buffer and stained cells with 25 μM DCFDA for 45 minutes at 37° C. Then, washed cells once in 1× Buffer or 1×PBS. TMR-GBP, H2O2 and TBHP could be diluted in complete media with 10% FBS without phenol red. Added 100 μL/well of TMR-GBP, H2O2 (as positive control), TBHP (as positive control) and incubated for desired time period. Cells should not be washed after treatment with the TBHP or other compounds of interest. It should contain non-stained cells to determine background fluorescence. Read signal at Ex/Em: 485/535 nm by fluorescent plate reader

`CN(C)c1ccc2c(-c3ccc(C(=O)N[C@@H](CC(N)=O)C(=O)N[C@@H](Cc4ccc(O)cc4)C(=O)N[C@@H](CCCNC(=N)N)C(=O)N[C@@H](Cc4c[nH]c5ccccc45)C(=O)N[C@@H](CCCNC(=N)N)C(=O)N[C@@H](CS)C(=O)N[C@@H](CCCCN)C(=O)N[C@@H](CC(N)=O)C(=O)N[C@@H](CCC(N)=O)C(=O)N[C@@H](CC(N)=O)C(=O)O)cc3C(=O)[O-])c3ccc(=[N+](C)C)cc-3oc2c1` [TMR-GBP] (X1-NYRWRCKNQN-OH; N-terminus and C-terminus assumed) was tested, and the “cytotoxicity under light stress (mortality)” value ([1]; Ca922, 12.5 μM, exposed to 532 nm, 488 nm, 405 nm and brightfield, after 20 hours, FIG. 2) was “more sensitive to 532 nm light stress and displayed cytotoxic effects”, the “cell death by time-lapse microscopy” value ([1]; Ca922, unbound TMR-GBP removed, imaged at 15 minutes interval for 16 hours, FIG. 4) was “most cells die in 8 hours” and the “cell death by time-lapse microscopy” value [2] was “still alive after long-term TMR-GBP treatment”. The “protein expression of Bax” value [3] was “increased”, the “increase of ROS compared with control cells” value ([4]; Ca922, 25 μM, 6 hours, DCFDA, after background subtraction, FIG. 9) was 5 folds and the “ROS production with NAC treatment” value ([4]; NAC treatment in the presence of TMR-GBP) was “reversed by NAC treatment”.
